Consider six compounds from article PMC10238281 (International Journal of Biological Macromolecules, 2023).

The subject of one data set is SARS2-S pseudovirus. Description: microbe, parasite or virus in culture. The note with it: for activity at 2 µM: A549-ACE2, 72 h, read-out: Luciferase ratio (%), 2 μM. Format: cell-based, SARS-CoV-2.
Data set [1] in a line: Tissue distribution / pharmacokinetics in female ICR mice. Format: in vivo.
Another data set addresses spike RBD protein (Severe acute respiratory syndrome coronavirus 2, UniProt P0DTC2). Format: binding, SARS-CoV-2.

Each structure is given as a SMILES string. Bounds are passed on as bounds.

In general, EC50 refers to the concentration that produces a half-maximal response.

As for `CN1CCN(c2ccc(-c3cnc4[nH]cc(C(=O)c5ccc(F)cc5)c4c3)cc2)CC1` [ASM-2, (4-Fluorophenyl)(5-(4-(4-methylpiperazin-1-yl)phenyl)-1H-pyrrolo[2,3-b]pyridin-3-yl)methanone], the activity at 2 µM with SARS2-S pseudovirus (Pseudovirus) was under 25%.

Take `COc1ccc(C(=O)c2c[nH]c3ncc(-c4ccc(N5CCNCC5)nc4)cc23)cc1` [ASM-4, (4-Methoxyphenyl)(5-(6-(piperazin-1-yl)pyridin-3-yl)-1H-pyrrolo[2,3-b]pyridin-3-yl)methanone]: the activity at 2 µM in the data set on SARS2-S pseudovirus (Pseudovirus) is under 25%.

Take `O=C(c1ccc(F)cc1)c1c[nH]c2ncc(-c3ccc(N4CCNCC4)nc3)cc12` [ASM-7, (4-Fluorophenyl)(5-(6-(piperazin-1-yl)pyridin-3-yl)-1H-pyrrolo[2,3-b]pyridin-3-yl)methanone]: the “Organ distribution (heart, liver, spleen, lung, kidney, brain)” value in data set [1] (female ICR mice, 1 h after oral administration (30 mg/kg)) was “favorable targetability towards the lung”. Moreover, the “Blood versus lung concentration” value in data set [1] (female ICR mice, intravenous administration, 5 min) was “concentration of ASM-7 in the lung was substantially higher”. Moreover, in data set [1] (female ICR mice, oral, 4 h), the “Detection in the lung after oral administration” value is “could still be detected in the lung”. The concentration at 5 min in data set [1] (female, ICR, mouse, lung, iv, 3 mg/kg) came out at 30000 ng/g. The “Fold advantage of EC50 over G7a” value in the data set on SARS2-S pseudovirus is 20 fold. Also, the EC50 with SARS2-S pseudovirus (Pseudovirus, A549-ACE2, read-out: EC50, inhibition of SARS2-S pseudovirus entry) came out at 450 nM.

Turning to `O=C(c1cccc(F)c1)c1c[nH]c2ncc(-c3ccc(N4CCNCC4)nc3)cc12` [ASM-9, (3-Fluorophenyl)(5-(6-(piperazin-1-yl)pyridin-3-yl)-1H-pyrrolo[2,3-b]pyridin-3-yl)methanone], in the data set with SARS2-S pseudovirus (Pseudovirus), the activity at 2 µM was under 25%.

For `O=C(CCCCC1SCC2NC(=O)NC21)NCCCCCC(=O)N1CCN(c2ccc(-c3cnc4[nH]cc(C(=O)c5ccc(F)cc5)c4c3)cn2)CC1` (centres unmarked) [Biotin-ASM-7, N-(6-(4-(5-(3-(4-Fluorobenzoyl)-1H-pyrrolo[2,3-b]pyridin-5-yl)pyridin-2-yl)piperazin-1-yl)-6-oxohexyl)-5-(2-oxohexahydro-1H-thieno[3,4-d]imidazol-4-yl)pentanamide], the “Binding / pull-down of spike RBD protein by streptavidin IP” value at spike RBD protein is on record as “could pull down the spike RBD protein”.

`O=C(CCCCC1SCC2NC(=O)NC21)NCCCCCC(=O)N1CCN(c2ccc(-c3cnc4[nH]c(/C=C/c5ccccc5O)nc4c3)cn2)CC1` (centres unmarked) [Biotin-G7a, (E)-N-(6-(4-(5-(2-(2-Hydroxystyryl)-3H-imidazo[4,5-b]pyridin-6-yl)pyridin-2-yl)piperazin-1-yl)-6-oxohexyl)-5-(2-oxohexahydro-1H-thieno[3,4-d]imidazol-4-yl)pentanamide]: at spike RBD protein, the “Binding / pull-down of spike RBD protein by streptavidin IP” value is recorded as “retained the ability to bind spike RBD protein”.
